Results taken from patent EP0946545B1, “NOVEL CARBOXY SUBSTITUTED CYCLIC CARBOXAMIDE DERIVATIVES” (Aventis Pharmaceuticals Inc., priority 1996, dated 1998).
Counter-ions that a name gives are not always drawn. Like-named read-outs stand apart in the source and are kept apart here.

Experiments:
[1] = target: T1, human jejunal NK2 receptor (Homo sapiens, UniProt P21452); test: Antagonism of iodinated tachykinin binding to NK2 receptors (Example A)
T1 construct: expressed in transfected cells; host or cells: HSKR-1 cells (mouse 3T3 fibroblasts)
T1 sequence (P21452 1-398): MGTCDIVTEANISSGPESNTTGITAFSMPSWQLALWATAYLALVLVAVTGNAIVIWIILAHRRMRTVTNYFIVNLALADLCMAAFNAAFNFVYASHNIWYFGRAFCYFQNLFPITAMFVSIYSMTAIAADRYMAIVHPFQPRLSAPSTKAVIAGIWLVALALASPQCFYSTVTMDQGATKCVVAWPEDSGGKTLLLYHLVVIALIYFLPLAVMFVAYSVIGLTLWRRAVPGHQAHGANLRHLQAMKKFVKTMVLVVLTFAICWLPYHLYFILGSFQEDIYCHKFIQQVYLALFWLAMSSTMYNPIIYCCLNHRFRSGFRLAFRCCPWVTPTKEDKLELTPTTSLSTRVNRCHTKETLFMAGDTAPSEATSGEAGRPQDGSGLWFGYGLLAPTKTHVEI
Description: (§1) One skilled in the art can determine the NK1 receptor and NK2 receptor affinity in vitro as follows. The NK1 receptor affinity of tachykinin antagonists is evaluated in guinea pig lungs (Keystone Biologicals, Cleveland, OH) and affinity for the NK2 receptor is evaluated in HSKR-1 cells (which are mouse 3T3 fibroblasts expressing the human jejunal NK2 receptor). Tissues or cells are homogenized with a Polytron in 15 volumes of 50 mM Tris-HC1 buffer (pH 7.4, 4°C) and centrifuged. The pellet is resuspended in Tris-HCl buffer and is centrifuged; the pellet is washed twice by resuspension. The final pellet is resuspended at a concentration of 40 mg/ml for tissues and 20 mg/ml for cells in incubation buffer and remains at room temperature for at least 15 min prior to use. Receptor binding is initiated by addition of 250 ul membrane preparation in duplicate to 0.1 nM of the following radioligands: ^125I-Bolton Hunter Lys-3 labeled substance P and ^125iodohistidyl-1-neurokinin A; in a final volume of 500 ul of buffer containing 50 mM Tris-HCl (pH 7.4 at room temperature), 0.1% bovine serum albumin, 2 mM mangenese chloride, 40 ug/ml bacitracin, 4 µg/ml leupeptin and chymostatin, 10 µM thiorphan and various doses of the putative tachykinin antagonists. Incubations are performed at room temperature for 90 min (NK1 receptor assays) or 2 hr (NK2 receptor assay); binding is terminated by addition of 50 mM Tris-HCl buffer (pH 7.4, 4°C) and filtration under vacuum through GF/B filters presoaked with 0.1% polyethyleneimine (NK1 receptor assays) or 0.5% bovine serum albumin (NK2 receptor assay). Filter bound radioactivity is quantitated in a gamma counter. Nonspecific binding is defined as binding in the presence of 1 µM substance P or neurokinin A. Specific binding is calculated by subtracting nonspecific binding from total binding. Competition of iodinated SP or NKA binding by test compounds or standards is expressed as a percentage of this maximum binding. IC50 values (concentration required to inhibit 50% of receptor binding) are generated for each of the test compounds by nonlinear regression using an iterative curve fitting program (GraphPAD Inplot, San Diego, CA).
(§2) Tackykinin receptor binding (IC50 values) for representative compounds of the present invention is found in Table 1. The values in Table 1 were determined by the method of present Example A and represent the mean of several experiments, except where noted. […]

NK1 receptor = target: T2, NK1 receptor (Cavia porcellus, UniProt P30547); test: Antagonism of iodinated tachykinin binding to NK1 receptors (Example A); parameters: species or system guinea pig
T2 construct: evaluated in guinea pig lungs (Keystone Biologicals, Cleveland, OH); tissue Keystone Biologicals, Cleveland, OH; host or cells: guinea pig lung membranes
T2 sequence (P30547 whole entry): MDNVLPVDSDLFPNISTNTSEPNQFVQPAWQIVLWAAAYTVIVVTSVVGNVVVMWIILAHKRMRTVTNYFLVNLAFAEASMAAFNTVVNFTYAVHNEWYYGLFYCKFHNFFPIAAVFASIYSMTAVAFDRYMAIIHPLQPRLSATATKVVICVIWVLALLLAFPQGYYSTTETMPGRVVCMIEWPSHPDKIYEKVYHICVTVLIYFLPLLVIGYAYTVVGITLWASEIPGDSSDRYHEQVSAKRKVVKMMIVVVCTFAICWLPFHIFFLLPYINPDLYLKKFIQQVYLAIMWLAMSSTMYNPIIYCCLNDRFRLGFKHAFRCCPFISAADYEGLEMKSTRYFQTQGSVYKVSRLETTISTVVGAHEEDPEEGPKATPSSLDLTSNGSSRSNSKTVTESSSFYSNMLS
Description: as §1, §2

[2] = read-out: Tachykinin Receptor Binding NK2 IC50, HSKR-1 cells (mouse 3T3 fibroblasts expressing the human jejunal NK2 receptor), 0.1 nM 125iodohistidyl-1-neurokinin A, 2 hr room temperature, mean of several experiments
[3] = read-out: Tachykinin Receptor Binding NK1 IC50, guinea pig lungs membranes, 0.1 nM 125I-Bolton Hunter Lys-3 labeled substance P, 90 min room temperature, mean of several experiments

CCOC(=O)CCCN1CCN(C(=O)C2(c3ccccc3)CCN(CC[C@]3(c4ccc(Cl)c(Cl)c4)CCN(C(=O)c4cc(OC)c(OC)c(OC)c4)C3)CC2)CC1 [Example 29.2, (R)-1-(3,4,5-trimethoxybenzoyl)-3-(2-(4-phenyl-4-((4-carboethoxypropylpiperazin-1-yl)carboxamido)piperidine)ethyl)-3-(3,4-dichlorophenyl)pyrrolidine fumaric acid salt]
IC50 [1]: 3.21 nM
IC50 (NK1 receptor): 11.9 nM

COc1cc(C(=O)N2CC[C@](CCN3CCC(C(=O)N4CCN(CCCC(=O)O)CC4)(c4ccccc4)CC3)(c3ccc(Cl)c(Cl)c3)C2)cc(OC)c1OC [Example 30.2, (R)-1-(3,4,5-trimethoxybenzoyl)-3-(2-(4-phenyl-4-((4-carboxypropylpiperazin-1-yl)carboxamido)piperidine)ethyl)-3-(3,4-dichlorophenyl)pyrrolidine hydrochloric acid salt]
IC50 [1]: 3.6 nM
IC50 (NK1 receptor): 3.4 nM

CCOC(=O)OCOC(=O)CN1CCN(C(=O)C2(c3ccccc3)CCN(CC[C@]3(c4ccc(Cl)c(Cl)c4)CCN(C(=O)c4cc(OC)c(OC)c(OC)c4)C3)CC2)CC1 [Example 31.2, (R)-1-(3,4,5-trimethoxybenzoyl)-3-(2-(4-phenyl-4-((4-carbo(ethoxycarbonyloxymethoxy)methylpiperazin-1-yl)carboxamido)piperidine)ethyl)-3-(3,4-dichlorophenyl)pyrrolidine fumaric acid salt]
IC50 [1, 2]: 9.1 nM
IC50 (NK1 receptor; [3]): 11.7 nM

COc1cc(C(=O)N2CC[C@](CCN3CCC(C(=O)N4CCN(CC(=O)OCOC(=O)C(C)(C)C)CC4)(c4ccccc4)CC3)(c3ccc(Cl)c(Cl)c3)C2)cc(OC)c1OC [Example 32.2, (R)-1-(3,4,5-trimethoxybenzoyl)-3-(2-(4-phenyl-4-((4-carbo(t-butylcarbonyloxymethoxy)methylpiperazin-1-yl)carboxamido)piperidine)ethyl)-3-(3,4-dichlorophenyl)pyrrolidine fumaric acid salt]
IC50 [1, 2]: 13.9 nM
IC50 (NK1 receptor; [3]): 21.2 nM

CCN(CC)C(=O)COC(=O)CN1CCN(C(=O)C2(c3ccccc3)CCN(CC[C@]3(c4ccc(Cl)c(Cl)c4)CCN(C(=O)c4cc(OC)c(OC)c(OC)c4)C3)CC2)CC1 [Example 33.2, (R)-1-(3,4,5-trimethoxybenzoyl)-3-(2-(4-phenyl-4-((4-carbo(N,N-diethylcarboxamidomethoxy)methylpiperazin-1-yl)carboxamido)piperidine)ethyl)-3-(3,4-dichlorophenyl)pyrrolidine fumaric acid salt]
IC50 [1, 2]: 2.43 nM
IC50 (NK1 receptor; [3]): 3.95 nM

CCCC(=O)OCOC(=O)CN1CCN(C(=O)C2(c3ccccc3)CCN(CC[C@]3(c4ccc(Cl)c(Cl)c4)CCN(C(=O)c4cc(OC)c(OC)c(OC)c4)C3)CC2)CC1 [Example 35.2, (R)-1-(3,4,5-trimethoxybenzoyl)-3-(2-(4-phenyl-4-((4-carbo(propylcarbonyloxymethoxy)methylpiperazin-1 yl)carboxamido)piperidine)ethyl)-3-(3,4-dichlorophenyl)pyrrolidine fumaric acid salt]
IC50 [1, 2]: 11.7 nM
IC50 (NK1 receptor; [3]): 14.7 nM

COc1cc(C(=O)N2CC[C@](CCN3CCC(C(=O)N4CCN(CC(=O)OCC(=O)N(CCO)CCO)CC4)(c4ccccc4)CC3)(c3ccc(Cl)c(Cl)c3)C2)cc(OC)c1OC [Example 36.1, (R)-1-(3,4,5-Trimethoxybenzoyl)-3-(2-(4-phenyl-4-((4-carbo(N,N-di-(2-hydroxyethyl)carboxamidomethoxy)methylpiperazin-1-yl)carboxamido)piperidin-1-yl)ethyl)-3-(3,4-dichlorophenyl)pyrrolidine]
IC50 [1, 2]: 2.32 nM
IC50 (NK1 receptor; [3]): 2.68 nM

COc1cc(C(=O)N2CC[C@](CCN3CCC(C(=O)N4CCN(CC(=O)OCC(=O)N(C)CCN(C)C)CC4)(c4ccccc4)CC3)(c3ccc(Cl)c(Cl)c3)C2)cc(OC)c1OC [Example 37.2, (R)-1-(3,4,5-Trimethoxybenzoyl)-3-(2-(4-phenyl-4-((4-carbo(N-methyl-N-(2-dimethylaminoethyl))carboxamidomethoxy)methylpiperazin-1-yl)carboxamido)piperidin-1-yl)ethyl)-3-(3,4-dichlorophenyl)pyrrolidine fumaric acid salt]
IC50 [1, 2]: 0.9 nM
IC50 (NK1 receptor; [3]): 2.09 nM

COc1cc(C(=O)N2CC[C@](CCN3CCC(C(=O)N4CCN(CC(=O)OCc5oc(=O)oc5C)CC4)(c4ccccc4)CC3)(c3ccc(Cl)c(Cl)c3)C2)cc(OC)c1OC [Example 38.2, (R)-1-(3,4,5-Trimethoxybenzoyl)-3-(2-(4-phenyl-4-((4-carbo(5-methyl-2-oxo-1,3-dioxol-4-yimethoxy)methylpiperazin-1-yl)carboxamido)piperidin-1-yl)ethyl)-3-(3,4-dichlorophenyl)pyrrolidine fumaric acid salt]
IC50 [1, 2]: 4.3 nM
IC50 (NK1 receptor; [3]): 7.82 nM
